One block for each compound: values may come before it. The source made the active and inactive calls.
How the values were obtained:
[1] = target: Voltage-gated potassium channel, KQT; KCNQ2(Kv7.2)/KCNQ3(Kv7.3) (Homo sapiens, UniProt O43525+O43526); test: Agonist activity at human KCNQ2/3 transfected in human HEK293 cells incubated for 30 mins by fluorimetric assay; type: cell-based
[2] = target: Voltage-gated potassium channel, KQT; KCNQ2(Kv7.2)/KCNQ3(Kv7.3) (Homo sapiens) (UniProt O43526+O43525); test: Agonist activity at human KCNQ2/3 transfected in human HEK293 cells incubated for 30 mins by fluorimetric assay relative to flupirtine; type: cell-based; settings: filed as agonist
[3] = Hepatotoxicity in rat assessed as change in serum AST level at 10 to 40 mg/kg, IG administered for 28 days and measured after 14 days; type: toxicity, organism-based; settings: in vivo, po, 672 h, dose 10-40 mg/kg, time 28 day
[4] = Hepatotoxicity in rat assessed as change in serum ALP level at 10 to 40 mg/kg, IG administered for 28 days and measured after 14 days; type: toxicity, organism-based; settings: in vivo, po, 672 h, dose 10-40 mg/kg, time 28 day
[5] = Hepatotoxicity in rat assessed as change in serum total bilirubin (TBIL) level at 10 to 40 mg/kg, IG administered for 28 days and measured after 14 days; type: toxicity, organism-based; settings: in vivo, po, 672 h, dose 10-40 mg/kg, time 28 day
[6] = Hepatotoxicity in rat assessed as increase in serum ALT level at 20 to 40 mg/kg, IG administered for 28 days and measured after 14 days relative to control; type: toxicity, organism-based; settings: in vivo, po, 672 h, dose 20-40 mg/kg, time 28 day
[7] = target: GABA-A receptor; anion channel (Homo sapiens) (UniProt P14867+P47870+P18507+P28472+P48169+Q99928+Q9UN88+P34903+O00591+O14764+Q8N1C3+P18505+P78334+P47869+P31644+Q16445); test: Inhibition of GABAA receptor (unknown origin) relative to control; type: protein-complex assay; settings: concentration not given here
[8] = target: Glutamate [NMDA] receptor (Homo sapiens) (UniProt Q05586+Q12879+Q13224+O15399+O60391+Q14957+Q8TCU5); test: Inhibition of NMDA receptor (unknown origin) relative to control; type: protein-complex assay; settings: concentration not given here
[9] = target: Voltage-gated inwardly rectifying potassium channel KCNH2 (Homo sapiens, UniProt Q12809); test: Inhibition of hERG expressed in HEK293 cells by patch clamp method; type: toxicity, cell-based
Homo sapiens [10] = species on record: Homo sapiens; test: Inhibition of serotonin receptor (unknown origin) relative to control; settings: concentration not given here
[11] = target: Mu-type opioid receptor (Homo sapiens) (UniProt P35372); test: Inhibition of mu-opioid receptor (unknown origin) relative to control; settings: concentration not given here
[12] = target: Histamine H3 receptor (Homo sapiens) (UniProt Q9Y5N1); test: Inhibition of H3 receptor (unknown origin) relative to control; settings: concentration not given here
Homo sapiens [13] = species on record: Homo sapiens; test: Inhibition of voltage-gated sodium channel Nav 1.7 (unknown origin) relative to control; settings: concentration not given here
[14] = target: Transient receptor potential cation channel subfamily V member 1 (Homo sapiens) (UniProt Q8NER1); test: Inhibition of TRPV-1 (unknown origin) relative to control; settings: concentration not given here
[15] = Acute toxicity in mouse assessed as lethal dose at IG administration measured after 7 days; settings: in vivo, po, time 7 day
[16] = Acute toxicity in mouse assessed as lethal dose at iv administration measured after 7 days; type: organism-based; settings: in vivo, time 7 day
[17] = Acute toxicity in mouse assessed as lethal dose at ip administration measured after 7 days; type: organism-based; settings: in vivo, time 7 day
Rattus norvegicus [18] = test: Antinociceptive activity against formalin-induced pain in male Sprague-Dawley rat assessed as reduction in nociceptive response at 20 mg/kg, IG pretreated for 5 mins followed by formalin challenge and measured for first 9 mins (phase I); type: functional, organism-based; settings: time 14.0 min
Rattus norvegicus [19] = test: Antinociceptive activity against formalin-induced pain in male Sprague-Dawley rat assessed as reduction in nociceptive response at 20 mg/kg, IG pretreated for 5 mins followed by formalin challenge and measured for 10 to 60 mins (phase II); type: functional, organism-based
Rattus norvegicus [20] = test: Antinociceptive activity against formalin-induced pain in male Sprague-Dawley rat assessed as reduction in nociceptive response at IG administration pretreated for 5 mins followed by formalin challenge and measured for 9 mins (phase I); type: functional; settings: po, 14 min
Rattus norvegicus [21] = test: Antinociceptive activity against formalin-induced pain in male Sprague-Dawley rat assessed as reduction in nociceptive response in phase II at IG administration pretreated for 5 mins followed by formalin challenge and measured after 60 mins; type: functional; settings: po, 1.083 h, time 65 min
Rattus norvegicus [22] = test: Antiallodynic activity in IG dosed spinal nerve ligation-induced neuropathic pain male Sprague-Dawley rat model assessed as mechanical withdrawal threshold pretreated with compound for 1 hr and measured on day 15 after surgery; type: functional
Rattus norvegicus [23] = test: Antiallodynic activity in spinal nerve ligation-induced neuropathic pain male Sprague-Dawley rat model assessed as mechanical withdrawal threshold at 40 mg/kg, IG pretreated with compound for 1 hr and measured on day 15 after surgery; type: functional, organism-based; settings: time 15.0 day
Rattus norvegicus [24] = test: Antiallodynic activity against oxaliplatin-induced neuropathic pain Sprague-Dawley rat model assessed as increased mechanical withdrawal threshold at 10 to 40 mg/kg, IG measured for 48 hrs; type: functional, organism-based; settings: dose 10-40 mg/kg
Rattus norvegicus [25] = test: Antiallodynic activity against oxaliplatin-induced neuropathic pain Sprague-Dawley rat model assessed as increased mechanical withdrawal threshold at IG administration and measured after 48 hrs; type: functional; settings: po
Rattus norvegicus [26] = test: Antiallodynic activity against oxaliplatin-induced neuropathic pain Sprague-Dawley rat model assessed as increased mechanical withdrawal threshold at 40 mg/kg, IG measured after 48 hrs; type: functional, organism-based; settings: time 1.0 hrs
Rattus norvegicus [27] = test: Antiallodynic activity in CCI-induced neuropathic pain Sprague-Dawley rat model assessed as attenuation of mechanical allodynia at 10 to 40 mg/kg, IG pretreated with compound for 1 hrs and measured on day 15 after surgery; type: functional, organism-based; settings: dose 10-40 mg/kg, time 15.0 day
Rattus norvegicus [28] = test: Antiallodynic activity in CCI-induced neuropathic pain Sprague-Dawley rat model assessed as attenuation of mechanical allodynia at IG administration pretreated with compound for 1 hrs and measured on day 15 after surgery; type: functional; settings: dose 10-40 mg/kg
Rattus norvegicus [29] = test: Antiallodynic activity in CCI-induced neuropathic pain Sprague-Dawley rat model assessed as attenuation of mechanical allodynia at 20 mg/kg, IG administration pretreated with compound for 1 hrs and measured on day 15 after surgery; type: functional, organism-based; settings: time 15.0 day
Rattus norvegicus [30] = species on record: Rattus norvegicus; test: Analgesic activity in streptozotocin-induced diabetic peripheral neuropathic pain male Sprague-Dawley rat model pretreated with compound for 1 hrs and measured on day 15 after surgery; type: functional; settings: dose 10-40 mg/kg
Rattus norvegicus [31] = test: Analgesic activity in streptozotocin-induced diabetic peripheral neuropathic pain male Sprague-Dawley rat model at 10 to 40 mg/kg pretreated with compound for 1 hrs and measured on day 15 after surgery; type: functional, organism-based; settings: dose 10-40 mg/kg
Mus musculus = test: Induction of motor coordination impairment in mouse at 10 to 40 mg/kg, IG measured upto 120 mins by rotarod method; type: functional, organism-based; settings: dose 10-40 mg/kg
[32] = AUC (0 to t) in male Sprague-Dawley rat at 5 mg/kg, iv measured upto 24 hrs by LC-MS/MS analysis; type: ADME, organism-based; settings: in vivo
[33] = AUC (0 to t) in male Sprague-Dawley rat at 30 mg/kg, IG measured upto 24 hrs by LC-MS/MS analysis; type: ADME, organism-based; settings: in vivo, po
[34] = AUC (0 to infinity) in male Sprague-Dawley rat at 5 mg/kg, iv measured upto 24 hrs by LC-MS/MS analysis; type: ADME, organism-based; settings: in vivo
[35] = AUC (0 to infinity) in male Sprague-Dawley rat at 30 mg/kg, IG measured upto 24 hrs by LC-MS/MS analysis; type: ADME, organism-based; settings: in vivo, po
[36] = Half life in male Sprague-Dawley rat at 5 mg/kg, iv measured upto 24 hrs by LC-MS/MS analysis; type: ADME, organism-based; settings: in vivo
[37] = Half life in male Sprague-Dawley rat at 30 mg/kg, IG measured upto 24 hrs by LC-MS/MS analysis; type: ADME, organism-based; settings: in vivo, po
[38] = Tmax in male Sprague-Dawley rat at 30 mg/kg, IG measured upto 24 hrs by LC-MS/MS analysis; type: ADME, organism-based; settings: in vivo, po
[39] = Clearance in male Sprague-Dawley rat at 5 mg/kg, iv measured upto 24 hrs by LC-MS/MS analysis; type: ADME, organism-based; settings: in vivo
[40] = Clearance in male Sprague-Dawley rat at 30 mg/kg, IG measured upto 24 hrs by LC-MS/MS analysis; type: ADME, organism-based; settings: in vivo, po
[41] = Cmax in male Sprague-Dawley rat at 5 mg/kg, iv measured upto 24 hrs by LC-MS/MS analysis; type: ADME, organism-based; settings: in vivo
[42] = Cmax in male Sprague-Dawley rat at 30 mg/kg, IG measured upto 24 hrs by LC-MS/MS analysis; type: ADME, organism-based; settings: in vivo, po
[43] = Oral bioavailability in male Sprague-Dawley rat at 30 mg/kg measured upto 24 hrs by LC-MS/MS analysis; type: ADME, organism-based; settings: in vivo

Voltage-gated potassium channel, KQT; KCNQ2(Kv7.2)/KCNQ3(Kv7.3), sequence (O43526 whole entry): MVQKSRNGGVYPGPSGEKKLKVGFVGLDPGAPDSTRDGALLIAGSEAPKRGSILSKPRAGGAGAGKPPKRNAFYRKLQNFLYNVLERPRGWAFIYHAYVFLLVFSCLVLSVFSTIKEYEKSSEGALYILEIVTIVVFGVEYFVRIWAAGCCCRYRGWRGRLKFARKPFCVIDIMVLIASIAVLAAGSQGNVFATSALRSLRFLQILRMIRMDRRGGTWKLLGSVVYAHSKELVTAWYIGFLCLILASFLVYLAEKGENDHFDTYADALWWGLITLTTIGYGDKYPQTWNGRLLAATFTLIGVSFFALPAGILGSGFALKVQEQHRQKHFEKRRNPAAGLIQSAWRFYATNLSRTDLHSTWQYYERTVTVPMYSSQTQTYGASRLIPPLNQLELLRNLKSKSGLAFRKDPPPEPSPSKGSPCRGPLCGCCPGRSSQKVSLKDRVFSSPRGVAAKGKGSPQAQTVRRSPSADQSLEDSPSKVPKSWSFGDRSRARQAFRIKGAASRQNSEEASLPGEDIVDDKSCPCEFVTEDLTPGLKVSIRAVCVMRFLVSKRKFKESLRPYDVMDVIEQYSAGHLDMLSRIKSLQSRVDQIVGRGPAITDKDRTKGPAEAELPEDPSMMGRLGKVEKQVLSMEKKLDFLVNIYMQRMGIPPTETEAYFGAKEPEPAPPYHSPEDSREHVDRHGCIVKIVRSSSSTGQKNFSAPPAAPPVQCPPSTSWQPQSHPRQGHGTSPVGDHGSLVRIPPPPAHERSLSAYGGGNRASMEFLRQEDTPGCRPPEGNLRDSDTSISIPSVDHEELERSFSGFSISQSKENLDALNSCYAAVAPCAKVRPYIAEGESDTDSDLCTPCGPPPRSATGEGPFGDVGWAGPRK
Voltage-gated potassium channel, KQT; KCNQ2(Kv7.2)/KCNQ3(Kv7.3), sequence (O43525 whole entry): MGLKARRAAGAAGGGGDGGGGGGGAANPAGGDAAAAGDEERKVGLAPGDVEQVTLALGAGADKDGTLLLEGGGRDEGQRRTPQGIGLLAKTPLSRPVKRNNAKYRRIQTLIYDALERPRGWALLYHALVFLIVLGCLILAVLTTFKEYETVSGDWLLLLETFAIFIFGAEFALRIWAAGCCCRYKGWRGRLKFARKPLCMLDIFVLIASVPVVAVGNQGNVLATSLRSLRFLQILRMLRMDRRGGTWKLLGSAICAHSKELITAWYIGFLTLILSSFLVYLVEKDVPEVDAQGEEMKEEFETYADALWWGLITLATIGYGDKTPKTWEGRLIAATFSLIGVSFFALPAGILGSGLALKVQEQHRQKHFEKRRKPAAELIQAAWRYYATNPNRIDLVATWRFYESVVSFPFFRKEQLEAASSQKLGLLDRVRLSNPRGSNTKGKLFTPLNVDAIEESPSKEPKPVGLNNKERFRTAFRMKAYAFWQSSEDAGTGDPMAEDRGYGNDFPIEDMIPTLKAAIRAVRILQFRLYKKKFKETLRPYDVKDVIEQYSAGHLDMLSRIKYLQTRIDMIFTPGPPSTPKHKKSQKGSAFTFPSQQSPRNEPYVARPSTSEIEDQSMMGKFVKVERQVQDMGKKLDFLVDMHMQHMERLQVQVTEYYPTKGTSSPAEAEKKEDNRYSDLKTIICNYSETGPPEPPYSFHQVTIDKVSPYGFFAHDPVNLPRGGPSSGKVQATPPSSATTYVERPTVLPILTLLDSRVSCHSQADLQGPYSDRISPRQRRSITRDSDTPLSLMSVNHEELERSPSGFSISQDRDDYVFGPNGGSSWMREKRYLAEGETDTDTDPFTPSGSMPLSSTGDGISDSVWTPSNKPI
Histamine H3 receptor (Homo sapiens), sequence (Q9Y5N1 whole entry): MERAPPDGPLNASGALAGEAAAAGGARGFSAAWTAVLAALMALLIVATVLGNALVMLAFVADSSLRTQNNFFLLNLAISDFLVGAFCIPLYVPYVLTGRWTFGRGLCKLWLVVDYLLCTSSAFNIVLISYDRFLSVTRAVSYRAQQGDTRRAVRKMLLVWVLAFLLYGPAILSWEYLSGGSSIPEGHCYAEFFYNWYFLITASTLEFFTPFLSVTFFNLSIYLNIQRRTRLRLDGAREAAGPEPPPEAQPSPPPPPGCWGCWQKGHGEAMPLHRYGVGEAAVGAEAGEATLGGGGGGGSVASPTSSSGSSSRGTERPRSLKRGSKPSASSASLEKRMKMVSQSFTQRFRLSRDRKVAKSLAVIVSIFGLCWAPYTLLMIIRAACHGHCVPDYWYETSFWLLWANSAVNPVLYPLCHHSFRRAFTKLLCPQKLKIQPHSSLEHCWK
Transient receptor potential cation channel subfamily V member 1 (Homo sapiens), sequence (Q8NER1 whole entry): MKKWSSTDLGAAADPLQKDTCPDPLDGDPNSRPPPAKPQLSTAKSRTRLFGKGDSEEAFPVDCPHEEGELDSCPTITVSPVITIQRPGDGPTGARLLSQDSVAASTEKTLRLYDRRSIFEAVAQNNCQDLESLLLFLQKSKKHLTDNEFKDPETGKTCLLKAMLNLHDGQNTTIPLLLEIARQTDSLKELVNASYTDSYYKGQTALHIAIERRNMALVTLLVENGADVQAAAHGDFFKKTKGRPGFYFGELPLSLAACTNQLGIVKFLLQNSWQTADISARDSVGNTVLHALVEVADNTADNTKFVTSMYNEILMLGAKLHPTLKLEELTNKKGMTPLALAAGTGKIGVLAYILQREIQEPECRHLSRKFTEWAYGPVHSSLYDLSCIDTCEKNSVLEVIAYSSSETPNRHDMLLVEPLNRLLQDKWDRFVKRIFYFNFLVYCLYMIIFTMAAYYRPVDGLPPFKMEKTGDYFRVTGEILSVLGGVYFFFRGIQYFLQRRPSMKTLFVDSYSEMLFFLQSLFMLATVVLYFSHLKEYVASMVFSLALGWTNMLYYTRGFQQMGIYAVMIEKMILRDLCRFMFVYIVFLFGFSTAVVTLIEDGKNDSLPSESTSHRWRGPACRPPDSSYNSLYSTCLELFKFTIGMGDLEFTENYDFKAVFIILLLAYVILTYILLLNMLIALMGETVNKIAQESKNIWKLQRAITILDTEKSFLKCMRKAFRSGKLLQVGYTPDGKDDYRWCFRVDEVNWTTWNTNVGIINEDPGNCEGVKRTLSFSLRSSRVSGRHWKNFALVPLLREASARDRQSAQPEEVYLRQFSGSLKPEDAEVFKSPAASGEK
Voltage-gated inwardly rectifying potassium channel KCNH2, sequence (Q12809 whole entry): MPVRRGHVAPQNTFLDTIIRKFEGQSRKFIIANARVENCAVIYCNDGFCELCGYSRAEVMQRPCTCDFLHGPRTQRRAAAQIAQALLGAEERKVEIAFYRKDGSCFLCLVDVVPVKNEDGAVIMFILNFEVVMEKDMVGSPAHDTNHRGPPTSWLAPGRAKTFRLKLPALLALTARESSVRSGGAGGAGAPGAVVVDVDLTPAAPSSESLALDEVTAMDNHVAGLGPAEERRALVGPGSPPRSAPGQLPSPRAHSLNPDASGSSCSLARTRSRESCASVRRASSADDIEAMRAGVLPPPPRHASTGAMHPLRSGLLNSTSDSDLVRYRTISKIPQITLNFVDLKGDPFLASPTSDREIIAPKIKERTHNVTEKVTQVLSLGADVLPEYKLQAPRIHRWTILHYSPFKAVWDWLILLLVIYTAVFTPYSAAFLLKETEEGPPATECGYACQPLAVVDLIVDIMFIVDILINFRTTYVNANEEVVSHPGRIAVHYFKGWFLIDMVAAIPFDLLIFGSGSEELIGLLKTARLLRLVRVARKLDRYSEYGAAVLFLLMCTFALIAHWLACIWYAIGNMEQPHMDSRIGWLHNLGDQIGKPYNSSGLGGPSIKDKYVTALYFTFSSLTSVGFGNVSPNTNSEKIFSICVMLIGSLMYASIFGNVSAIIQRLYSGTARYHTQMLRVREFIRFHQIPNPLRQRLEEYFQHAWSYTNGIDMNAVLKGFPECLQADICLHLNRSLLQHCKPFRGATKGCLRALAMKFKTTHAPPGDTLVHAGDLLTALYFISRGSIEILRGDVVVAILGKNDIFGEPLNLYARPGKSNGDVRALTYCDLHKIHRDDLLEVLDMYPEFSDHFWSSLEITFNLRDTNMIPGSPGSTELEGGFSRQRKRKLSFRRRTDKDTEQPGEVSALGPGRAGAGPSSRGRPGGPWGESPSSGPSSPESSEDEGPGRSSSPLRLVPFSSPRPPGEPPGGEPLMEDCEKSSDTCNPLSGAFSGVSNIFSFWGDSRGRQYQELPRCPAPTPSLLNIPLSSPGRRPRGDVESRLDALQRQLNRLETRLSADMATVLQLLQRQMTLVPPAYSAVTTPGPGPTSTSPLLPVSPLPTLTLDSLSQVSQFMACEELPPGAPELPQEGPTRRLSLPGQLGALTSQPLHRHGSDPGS
Mu-type opioid receptor (Homo sapiens), sequence (P35372 whole entry): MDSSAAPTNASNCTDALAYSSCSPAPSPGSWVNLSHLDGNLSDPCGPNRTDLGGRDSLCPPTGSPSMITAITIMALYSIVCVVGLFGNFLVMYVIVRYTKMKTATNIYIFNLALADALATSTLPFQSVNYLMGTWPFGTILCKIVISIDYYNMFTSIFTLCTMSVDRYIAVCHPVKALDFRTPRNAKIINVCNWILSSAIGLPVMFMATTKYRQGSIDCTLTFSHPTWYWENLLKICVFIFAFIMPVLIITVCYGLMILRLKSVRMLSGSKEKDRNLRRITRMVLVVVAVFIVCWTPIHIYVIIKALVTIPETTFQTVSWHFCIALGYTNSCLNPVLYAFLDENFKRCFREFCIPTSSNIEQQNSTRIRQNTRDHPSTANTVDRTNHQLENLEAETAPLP

SMILES: CC(=O)Nc1nc(OCc2cccc3ccccc23)ccc1N
EC50 [1]: 218 µM

SMILES: Nc1ccc(OCc2ccc(F)cc2)nc1NC(=O)C1CCCC1
EC50 [1]: 131 µM

SMILES: CC(=O)Nc1nc(OCc2ccc(C(F)(F)F)cc2)ccc1N
EC50 [1]: 8.9 µM

SMILES: COc1ccc(COc2ccc(N)c(NC(C)=O)n2)cc1
EC50 [1]: 13.5 µM

SMILES: CC(=O)Nc1nc(OCc2ccc(F)cc2)ccc1N
EC50 [1]: 1.03 µM
Activity [2]: 184%
Activity [3]: Non-toxic
Activity [4]: Non-toxic
Activity [5]: Non-toxic
Activity [6]: < 70%
inhibition [7]: 59.5%
inhibition [8]: 69.7%
IC50 [9]: 448 µM
inhibition (Homo sapiens [10]): < 50%
inhibition [11]: < 50%
inhibition [12]: < 50%
inhibition (Homo sapiens [13]): < 50%
inhibition [14]: < 50%
LD50 at 168 h [15]: > 2000 mg/kg
LD50 at 168 h [16]: 267 mg/kg
LD50 at 168 h [17]: 421 mg/kg
Activity (Rattus norvegicus [18]): Active
Activity (Rattus norvegicus [19]): Active
ED50 (Rattus norvegicus [20]): 16.2 mg/kg
ED50 (Rattus norvegicus [21]): 14.7 mg/kg
ED50 (Rattus norvegicus [22]; po, 360 h, time 15 day): 14.9 mg/kg
Activity (Rattus norvegicus [22]; time 15.0 day): Dose-dependent-effect
Activity (Rattus norvegicus [23]): Active; Superior Activity Observed Than Pregabalin
Activity (Rattus norvegicus [24]): Active
ED50 (Rattus norvegicus [25]): 12.2 mg/kg
Activity (Rattus norvegicus [26]): Active; Inhibition Of Pain Was Higher Than Pregabalin
Activity (Rattus norvegicus [27]): Active
Activity (Rattus norvegicus [28]; time 15.0 day): Dose-dependent-effect
ED50 (Rattus norvegicus [28]; po, 360 h, time 15 day): 12 mg/kg
Activity (Rattus norvegicus [29]): Active; Higher Value Observed Than Pregabalin
ED50 (Rattus norvegicus [30]; 360 h, time 15 day): 9.63 mg/kg
Activity (Rattus norvegicus [30]; time 15.0 day): Dose-dependent-effect
Activity (Rattus norvegicus [31]): Active; Better Activity Than Pregabalin Observed
Activity (Mus musculus): Active
AUC(0-t) at 24 h [32]: 1100 ng·h/mL
AUC(0-t) at 24 h [33]: 4110 ng·h/mL
AUC(0-inf) [34]: 1520 ng·h/mL
AUC(0-inf) [35]: 4270 ng·h/mL
half-life [36]: 12.8 h
half-life [37]: 3.5 h
Tmax [38]: 0.17 h
clearance [39]: 56.7 mL/min/kg
CL/F [40]: 120 mL/min/kg
Cmax [41]: 2850 ng/mL
Cmax [42]: 3340 ng/mL
bioavailability [43]: 46.7%

SMILES: Nc1ccc(OCc2ccc(F)cc2)cc1NC(=O)C1CC1
EC50 [1]: 30.3 µM

SMILES: CC(=O)Nc1nc(OCc2ccc(-c3ccccc3)cc2)ccc1N
EC50 [1]: 131 µM

SMILES: Nc1ccc(OCc2ccc(F)cc2)nc1NC(=O)c1ccccc1
EC50 [1]: 98.6 µM

Further compounds by falling EC50 [1], results first:

EC50 [1]: 196 µM
SMILES: Nc1ccc(OCc2ccc(F)cc2)cc1NC(=O)c1ccccc1

EC50 [1]: 30.3 µM
SMILES: COc1cccc(COc2ccc(N)c(NC(C)=O)n2)c1

EC50 [1]: 18.9 µM
SMILES: CC(=O)Nc1nc(OC(C)c2ccc(F)cc2)ccc1N (centres undefined)

EC50 [1]: 12.1 µM
SMILES: CCOC(=O)Nc1nc(OCc2ccc(F)cc2)ccc1N

EC50 [1]: 9.39 µM
SMILES: CC(=O)Nc1nc(OCCc2ccc(F)cc2)ccc1N

Reference: ChEMBL document CHEMBL6092178, “Discovery of a novel KV7.2/7.3 channels agonist for the treatment of neuropathic pain” (Eur J Med Chem, 2024)
